# Test results published in patent publication US20250268815A1, “TRANSDERMAL DELIVERY SYSTEMS FOR ADMINISTRATION OF HYDROPHILIC MOLECULES AND METHODS OF MAKING AND USING SAME” (STATE OF ISRAEL, MINISTRY OF AGRICULTURE & RURAL …, priority 2021, published 2025).
# Key:
# [1] = tested on: Human skin (full thickness)
# Description: Transdermal insulin delivery was assessed by the Franz cell apparatus (PermeGear, PA, USA). Human skin (full thickness) was obtained from Zen-bio (NC, US). A mechanical skin press apparatus was used to section the skin and it was kept at −20° C. until it was used. On the day of experiment, the skin samples were pre-equilibrated with the PBS for 1 h prior to use, with the dermal side submerged in the buffer. Then, the skin samples were clamped between the donor and receptor chambers, with the epidermal side facing the donor compartment. […] The sunflower oil containing insulin without biopolymer was used as a control treatment. The receptor chamber was filled with 5 ml of PBS containing sodium azide (to prevent microbial growth) and kept at 32±0.5° C. under constant stirring (500 rpm). Samples (200 μL each) were taken at the indicated time points and an equal volume of the buffer was added immediately. The amount of insulin permeation was quantified by ELISA, using a designated standard curve [Mercodia]. All of the samples were tested in three repetitions.
compound,measurement,setting,value
"CCCCCCCCCCCCOS(=O)(=O)[O-].[Na+] [SDS, sodium dodecyl sulfate]","trans-epidermal water loss (TEWL), Baseline","skin; before application, 5 hr exposure experiment",10.0 ± 2.4 g/m^2/hr
same,increase of water loss (TEWL),"skin; positive control, same experimental settings",~3 fold
Sodium carboxymethyl cellulose [CMC],insulin permeation across human skin ex vivo,[1],did not enhance insulin permeation
